Here are results for 28 compounds from patent publication US12281057B2 (VERTEX PHARMACEUTICALS INCORPORATED, priority 2017, dated 2025).

The target of the assay is truncated form of human NaV 1.8 with full channel activity (Homo sapiens, UniProt Q9Y5Y9). Put plainly: E-VIPR Assay Method A for detecting and measuring Nav inhibition (HEK cells, membrane potential FRET dyes, electrical stimulation). Particulars: HEK cells expressing human NaV 1.8, HS (human serum) in compound loading buffer, 11 point dose response, top dose 3 μM, Table 20A, read-out: Nav 1.8 MedChem Optical Assay EVIPR Assay Method A HS IC50. Type of assay: cell-based. The procedure, abridged: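 Read-out: FRET membrane-potential dye ratio (460/580 nm) before and during E-VIPR field stimulation at 10 Hz for 10 s, expressed as % activity between DMSO and positive controls. Cells: HEK with truncated human NaV1.8; compound preincubated 30 min at room temp, final DMSO 0.625%.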
Chain of truncated form of human NaV 1.8 with full channel activity (Q9Y5Y9 126-1722 limits assumed): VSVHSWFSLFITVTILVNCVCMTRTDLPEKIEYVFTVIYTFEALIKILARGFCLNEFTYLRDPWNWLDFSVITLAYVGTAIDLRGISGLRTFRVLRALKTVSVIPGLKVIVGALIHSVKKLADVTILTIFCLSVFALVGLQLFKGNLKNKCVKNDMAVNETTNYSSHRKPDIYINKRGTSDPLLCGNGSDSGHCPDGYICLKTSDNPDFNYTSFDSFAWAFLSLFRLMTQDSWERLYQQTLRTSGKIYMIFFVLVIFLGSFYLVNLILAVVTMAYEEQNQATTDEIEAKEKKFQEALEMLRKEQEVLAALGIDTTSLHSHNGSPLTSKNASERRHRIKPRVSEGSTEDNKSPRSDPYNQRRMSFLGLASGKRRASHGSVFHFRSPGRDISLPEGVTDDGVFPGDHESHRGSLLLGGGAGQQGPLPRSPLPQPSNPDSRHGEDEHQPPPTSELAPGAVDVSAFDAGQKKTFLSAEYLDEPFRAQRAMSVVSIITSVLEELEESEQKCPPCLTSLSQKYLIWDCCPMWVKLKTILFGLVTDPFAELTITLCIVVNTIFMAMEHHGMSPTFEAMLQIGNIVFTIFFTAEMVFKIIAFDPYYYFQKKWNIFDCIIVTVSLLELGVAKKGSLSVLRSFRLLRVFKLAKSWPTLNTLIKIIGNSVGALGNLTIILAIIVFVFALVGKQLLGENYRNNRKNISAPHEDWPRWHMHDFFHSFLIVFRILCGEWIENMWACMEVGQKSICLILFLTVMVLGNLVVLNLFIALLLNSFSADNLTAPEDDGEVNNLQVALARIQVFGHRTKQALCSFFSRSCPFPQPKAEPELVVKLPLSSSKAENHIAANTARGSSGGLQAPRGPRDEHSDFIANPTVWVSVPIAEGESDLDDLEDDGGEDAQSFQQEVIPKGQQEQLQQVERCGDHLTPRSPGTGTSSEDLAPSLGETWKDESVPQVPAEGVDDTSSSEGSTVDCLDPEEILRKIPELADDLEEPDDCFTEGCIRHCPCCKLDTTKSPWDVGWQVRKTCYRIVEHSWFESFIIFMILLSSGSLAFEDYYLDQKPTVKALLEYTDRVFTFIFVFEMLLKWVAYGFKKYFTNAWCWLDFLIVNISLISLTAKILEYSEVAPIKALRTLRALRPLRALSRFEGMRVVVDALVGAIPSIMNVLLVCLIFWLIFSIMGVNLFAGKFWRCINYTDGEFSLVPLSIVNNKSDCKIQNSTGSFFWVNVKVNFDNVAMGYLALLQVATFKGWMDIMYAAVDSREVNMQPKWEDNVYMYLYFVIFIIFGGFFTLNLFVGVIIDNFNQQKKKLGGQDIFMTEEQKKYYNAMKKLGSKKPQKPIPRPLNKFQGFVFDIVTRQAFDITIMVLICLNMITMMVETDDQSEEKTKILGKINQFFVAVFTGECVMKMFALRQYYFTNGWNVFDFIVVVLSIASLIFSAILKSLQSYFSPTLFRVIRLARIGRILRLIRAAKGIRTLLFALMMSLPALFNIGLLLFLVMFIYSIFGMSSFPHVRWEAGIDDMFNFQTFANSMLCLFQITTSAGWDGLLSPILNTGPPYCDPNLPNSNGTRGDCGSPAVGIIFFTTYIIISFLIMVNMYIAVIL
In the case of `COc1cc(OC(F)(F)F)ccc1Oc1cc2c(cc1C(=O)Nc1ccc(C(N)=O)nc1)OC(F)(F)O2` [Compound 197, 5-[[2,2-Difluoro-6-[2-methoxy-4-(trifluoromethoxy)phenoxy]-1,3-benzodioxole-5-carbonyl]amino]pyridine-2-carboxamide], the IC50 is 460 nM.
For `[2H]C([2H])([2H])Oc1cc(OC(F)(F)F)ccc1Oc1ccc(OC(F)F)c(F)c1C(=O)Nc1ccc(C(N)=O)nc1` [Compound 198, 5-[[3-(Difluoromethoxy)-2-fluoro-6-[2-(trideuteriomethoxy)-4-(trifluoromethoxy)phenoxy]benzoyl]amino]pyridine-2-carboxamide], the IC50 was found to be 150 nM.
To `COc1cc(F)ccc1-c1cc(C(C)(C)C)ncc1C(=O)Nc1ccc(F)c(C(N)=O)c1` [Compound 199, 6-tert-butyl-N-(3-carbamoyl-4-fluoro-phenyl)-4-(4-fluoro-2-methoxy-phenyl)pyridine-3-carboxamide] belongs 170 nM.
As for `COc1cc(F)ccc1-c1cnc(C(F)(F)F)cc1C(=O)Nc1ccc(F)c(C(N)=O)c1` [Compound 200, N-(3-carbamoyl-4-fluoro-phenyl)-5-(4-fluoro-2-methoxy-phenyl)-2-(trifluoromethyl)pyridine-4-carboxamide], the IC50 is more than 3100 nM.
`COc1cc(OC(F)(F)F)ccc1Oc1cc(Cl)c(C)c(F)c1C(=O)Nc1ccnc(C(N)=O)c1` [Compound 201, 4-[[4-Chloro-2-fluoro-6-[2-methoxy-4-(trifluoromethoxy)phenoxy]-3-methyl-benzoyl]amino]pyridine-2-carboxamide]: the IC50 was determined as 1 nM.
To `COc1cc(OC(F)(F)F)ccc1Oc1ccc(C(F)(F)F)c(OC)c1C(=O)Nc1ccc(C(N)=O)nc1` [Compound 202, 5-[[2-Methoxy-6-[2-methoxy-4-(trifluoromethoxy)phenoxy]-3-(trifluoromethyl)benzoyl]amino]pyridine-2-carboxamide] belongs 40 nM; to `COc1cc(OC(F)(F)F)ccc1Oc1cnc(C(F)(F)F)c(OC)c1C(=O)Nc1ccc(C(N)=O)nc1` [Compound 203, N-(6-Carbamoyl-3-pyridyl)-3-methoxy-5-[2-methoxy-4-(trifluoromethoxy)phenoxy]-2-(trifluoromethyl)pyridine-4-carboxamide], 46 nM.
`COc1cc(OC(F)(F)F)ccc1Oc1cc(Cl)cc(OC)c1C(=O)Nc1ccc(C(N)=O)nc1` [Compound 204, 5-[[4-Chloro-2-methoxy-6-[2-methoxy-4-(trifluoromethoxy)phenoxy]benzoyl]amino]pyridine-2-carboxamide]: the IC50 worked out at 600 nM.
To `COc1cc(OC(F)(F)F)ccc1Oc1ccc(C(F)(F)F)c(OC)c1C(=O)Nc1ccc(C(N)=O)cn1` [Compound 205, 6-[[2-Methoxy-6-[2-methoxy-4-(trifluoromethoxy)phenoxy]-3-(trifluoromethyl)benzoyl]amino]pyridine-3-carboxamide] belongs 150 nM; to `CCOc1c(C(F)(F)F)ncc(Oc2ccc(OC(F)(F)F)cc2OC)c1C(=O)Nc1ccnc(C(N)=O)c1` [Compound 206, N-(2-Carbamoyl-4-pyridyl)-3-ethoxy-5-[2-methoxy-4-(trifluoromethoxy)phenoxy]-2-(trifluoromethyl)pyridine-4-carboxamide], 45 nM.
To `COc1cc(OC(F)(F)F)ccc1Oc1ccc(C(F)(F)F)c(F)c1C(=O)Nc1ccnc(C(N)=O)n1` [Compound 207, 4-[[2-Fluoro-6-[2-methoxy-4-(trifluoromethoxy)phenoxy]-3-(trifluoromethyl)benzoyl]amino]pyrimidine-2-carboxamide] belongs 27 nM.
To `NC(=O)c1cc(NC(=O)c2c(Oc3ccc(F)cc3OC(F)F)ccc(C(F)(F)F)c2F)ccn1` [Compound 208, 4-[[6-[2-(Difluoromethoxy)-4-fluoro-phenoxy]-2-fluoro-3-(trifluoromethyl)benzoyl]amino]pyridine-2-carboxamide] belongs 13 nM; to `[2H]C([2H])([2H])Oc1cc(OC(F)(F)F)ccc1Oc1ccc(C(F)(F)F)c(F)c1C(=O)Nc1ccc(C(=O)NC)nc1` [Compound 209, 5-[[2-fluoro-6-[2-(trideuteriomethoxy)-4-(trifluoromethoxy)phenoxy]-3-(trifluoromethyl)benzoyl]amino]-N-methyl-pyridine-2-carboxamide], 50 nM; to `CCOc1c(C(F)(F)F)ncc(Oc2ccc(OC(F)(F)F)cc2OC)c1C(=O)Nc1cc(C(N)=O)ncc1C` [Compound 210, N-(2-Carbamoyl-5-methyl-4-pyridyl)-3-ethoxy-5-[2-methoxy-4-(trifluoromethoxy)phenoxy]-2-(trifluoromethyl)pyridine-4-carboxamide], 140 nM.
Consider `COc1cc(OC(F)(F)F)ccc1Oc1cc(Cl)c(C)c(F)c1C(=O)Nc1cc(C(N)=O)ncc1C` [Compound 211, 4-[[4-Chloro-2-fluoro-6-[2-methoxy-4-(trifluoromethoxy)phenoxy]-3-methyl-benzoyl]amino]-5-methyl-pyridine-2-carboxamide], for which the IC50 came to 6 nM.
As to `[2H]C([2H])([2H])Oc1cc(OC(F)(F)F)ccc1Oc1ccc(C(F)(F)F)c(F)c1C(=O)Nc1ccc(C(N)=O)cn1` [Compound 212, 6-[[2-Fluoro-6-[2-(trideuteriomethoxy)-4-(trifluoromethoxy)phenoxy]-3-(trifluoromethyl)benzoyl]amino]pyridine-3-carboxamide], the IC50 worked out at 54 nM.
To `[2H]c1cc(F)c(C(N)=O)cc1NC(=O)c1c(Oc2c([2H])cc(OC(F)(F)F)c([2H])c2[2H])ccc(C(F)(F)F)c1F` [Compound 213, N-(5-Carbamoyl-2-deuterio-4-fluoro-phenyl)-2-fluoro-6-[2,3,6-trideuterio-4-(trifluoromethoxy)phenoxy]-3-(trifluoromethyl)benzamide] belongs 9 nM; to `NC(=O)c1cc(NC(=O)c2c(Oc3ccc(OC(F)(F)F)cc3O)ccc(C(F)(F)F)c2F)ccn1` [Compound 214, 4-[[2-Fluoro-6-[2-hydroxy-4-(trifluoromethoxy)phenoxy]-3-(trifluoromethyl)benzoyl]amino]pyridine-2-carboxamide], 660 nM.
To `NC(=O)c1cc(NC(=O)c2c(Oc3ccc(OC(F)(F)F)cc3)cc(OCc3ccccc3)c(C(F)(F)F)c2F)ccc1F` [Compound 215, 4-Benzyloxy-N-(3-carbamoyl-4-fluoro-phenyl)-2-fluoro-6-[4-(trifluoromethoxy)phenoxy]-3-(trifluoromethyl)benzamide] belongs 18 nM.
To `COc1cc(Oc2ccc(OC(F)(F)F)cc2)c(C(=O)Nc2ccc(F)c(C(N)=O)c2)c(F)c1C(F)(F)F` [Compound 216, N-(3-Carbamoyl-4-fluoro-phenyl)-2-fluoro-4-methoxy-6-[4-(trifluoromethoxy)phenoxy]-3-(trifluoromethyl)benzamide] belongs 8 nM.
For the compound `NC(=O)c1cc(NC(=O)c2c(F)c(C(F)(F)F)cc(OCc3ccccc3)c2Oc2ccc(OC(F)(F)F)cc2)ccc1F` [Compound 217, 5-Benzyloxy-N-(3-carbamoyl-4-fluoro-phenyl)-2-fluoro-6-[4-(trifluoromethoxy)phenoxy]-3-(trifluoromethyl)benzamide], the IC50 was found to be 1100 nM.
Consider `[2H]C([2H])([2H])Oc1c(Oc2ccc(C(F)(F)F)c(F)c2C(=O)Nc2ccnc(C(N)=O)c2)ccc(OC(F)(F)F)c1F` [Compound 218, 4-[[2-Fluoro-6-[3-fluoro-2-(trideuteriomethoxy)-4-(trifluoromethoxy)phenoxy]-3-(trifluoromethyl)benzoyl]amino]pyridine-2-carboxamide], for which the 50% inhibitory concentration (IC50) stood at 2 nM.
`COc1c(Oc2ccc(C(F)(F)F)c(F)c2C(=O)Nc2ccc(F)c(C(N)=O)c2)ccc(OC(F)(F)F)c1F` [Compound 219, N-(3-Carbamoyl-4-fluoro-phenyl)-2-fluoro-6-[3-fluoro-2-methoxy-4-(trifluoromethoxy)phenoxy]-3-(trifluoromethyl)benzamide]: the half-inhibitory concentration (IC50) was found to be 0.9 nM.
To `[2H]C([2H])([2H])Oc1c(Oc2ccc(Cl)c(F)c2C(=O)Nc2ccnc(C(N)=O)c2)ccc(OC(F)(F)F)c1F` [Compound 220, 4-[[3-Chloro-2-fluoro-6-[3-fluoro-2-(trideuteriomethoxy)-4-(trifluoromethoxy)phenoxy]benzoyl]amino]pyridine-2-carboxamide] belongs 5 nM; to `[2H]C([2H])([2H])Oc1c(Oc2ccc(C(F)(F)F)c(F)c2C(=O)Nc2ccc(C(N)=O)nc2)ccc(OC(F)(F)F)c1F` [Compound 221, 5-[[2-Fluoro-6-[3-fluoro-2-(trideuteriomethoxy)-4-(trifluoromethoxy)phenoxy]-3-(trifluoromethyl)benzoyl]amino]pyridine-2-carboxamide], 14 nM; to `[2H]C([2H])([2H])Oc1c(Oc2cc(Cl)c(C([2H])([2H])[2H])c(F)c2C(=O)Nc2ccnc(C(N)=O)c2)ccc(OC(F)(F)F)c1F` [Compound 222, 4-[[4-Chloro-2-fluoro-6-[3-fluoro-2-(trideuteriomethoxy)-4-(trifluoromethoxy)phenoxy]-3-(trideuteriomethyl)benzoyl]amino]pyridine-2-carboxamide], 3 nM.
For the compound `[2H]C([2H])([2H])Oc1c(Oc2cc(C(F)(F)F)cc(F)c2C(=O)Nc2ccnc(C(N)=O)c2)ccc(OC(F)(F)F)c1F` [Compound 223, 4-[[2-Fluoro-6-[3-fluoro-2-(trideuteriomethoxy)-4-(trifluoromethoxy)phenoxy]-4-(trifluoromethyl)benzoyl]amino]pyridine-2-carboxamide], the concentration for half-maximal inhibition (IC50) was 8 nM.
To `[2H]C([2H])([2H])Oc1c(Oc2cc(Cl)cc(Cl)c2C(=O)Nc2ccnc(C(N)=O)c2)ccc(OC(F)(F)F)c1F` [Compound 224, 4-[[2,4-Dichloro-6-[3-fluoro-2-(trideuteriomethoxy)-4-(trifluoromethoxy)phenoxy]benzoyl]amino]pyridine-2-carboxamide] belongs 9 nM.

The term IC50 denotes the midpoint of a concentration-inhibition curve.
